Measurements as given in patent publication US20250163169A1, “ANTIBODIES FOR PREVENTING THE CLEAVAGE OF CD95L BY METALLOPROTEASES” (INSTITUT NATIONAL DE LA SANTÉ ET DE LA RECHERCHE MÉDICALE, priority 2022, published 2025).

Legend:
[1] = system: CD95L-expressing leukemic T cell 1A12; experiment: Expression level of membrane-bound CD95L on 1A12 cells by flow cytometry; format: cell-based; conditions: 24 h, antibodies 10 pg/mL, GM6001 10 μM
Protocol: (§1) FIG. 2. Monoclonal antibodies targeting the Metalloprotease-Cleavage Sites of CD95L (MCSCs). […] Arrows represent putative cleavage site in CD95L sequence. […] Indicated peptides were injected in mice to generate monoclonal antibodies and three different hybridoma were selected regarding their ability to bind CD95L. […] B. Recombinant Ig-CD95L (100 ng) was pre-incubated for 15 min with indicated antibodies (100 pg/mL) and then treated for 1h with the indicated MMPs. The metalloprotease-cleaved fragment of Ig-CD95L (CD95L devoid of its released Ig domain of gp190) was monitored by immunoblotting. C. CD95L-expressing leukemic T cell 1A12 was incubated for 24 h with indicated antibodies ([…]) or the pan-MMP inhibitor GM6001 (10 μM) and the expression level of membrane-bound CD95L was assessed by flow cytometry. D. Supernatants were harvested from cells treated in C and the metalloprotease-cleaved CD95L was dosed by ELISA (Diaclone).

[2] = system: s-CD95L release from 1A12 cells; experiment: Metalloprotease-cleaved CD95L dosed by ELISA in supernatants of 1A12 cells; format: cell-based; conditions: 1A12 cells treated 24 hours, vs isotype (anti-myc 9E10 mAb) control
Protocol: as §1

## CNC(=O)[C@H](Cc1c[nH]c2ccccc12)NC(=O)[C@@H](CC(=O)NO)CC(C)C [GM6001, reference compound]
[1]
  Expression level of membrane-bound CD95L: augmentation of m-CD95L
[2]
  Concentrations of s-CD95L in supernatant: significantly reduced
